Consider seven molecules from US6737433B1, “1-N-phenylamino-1H-imidazole derivatives as aromatase inhibitors and pharmaceutical compositions containing them” (Laboratoire Theramex, priority 2002, dated 2004).

One may read the IC50 as the concentration that gives 50% inhibition. A lower IC50 goes with greater potency. A word on the % inhibition: it is the change of the read-out against control, counted positive when it falls. By melting point is commonly meant the temperature of the solid-liquid transition.

For the first series, the target named is T1, human aromatase (Homo sapiens, UniProt P11511).
T1 construct: The JEG-3 cell line, derived from a human placental choriocarcinoma, is intrinsically very rich in human aromatase; endogenous in cells; host or cells: JEG-3 (human placental choriocarcinoma)
T1 sequence (P11511 1-503): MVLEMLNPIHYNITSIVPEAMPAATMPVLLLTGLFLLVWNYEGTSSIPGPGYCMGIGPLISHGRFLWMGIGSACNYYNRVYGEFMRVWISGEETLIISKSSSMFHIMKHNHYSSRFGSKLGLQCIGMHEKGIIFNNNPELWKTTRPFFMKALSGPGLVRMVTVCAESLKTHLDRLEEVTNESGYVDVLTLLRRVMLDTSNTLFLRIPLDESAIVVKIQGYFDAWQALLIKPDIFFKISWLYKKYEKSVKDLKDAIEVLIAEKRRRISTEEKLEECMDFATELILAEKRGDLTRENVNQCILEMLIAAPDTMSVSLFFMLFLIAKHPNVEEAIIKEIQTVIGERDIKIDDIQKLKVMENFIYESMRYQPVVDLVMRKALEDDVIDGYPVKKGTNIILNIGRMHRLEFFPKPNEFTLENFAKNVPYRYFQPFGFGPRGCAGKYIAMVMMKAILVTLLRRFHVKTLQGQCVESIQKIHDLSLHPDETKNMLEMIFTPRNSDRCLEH
In words: Inhibition of human aromatase in vitro in JEG-3 cells (3H-water release from 1β-3H-androstenedione). In kind it is cell-based. The note with it: 10 nM 1β-3H-androstenedione, 2 h incubation. The protocol: Stocks of JEG-3 cells are grown up to 80% of confluence as monolayers in plastic flasks in minimum Eagle's medium with 1 g/l glucose and 10% decomplemented fetal calf serum at pH 7.4 and 37° C., under a 5% CO2 atmosphere. Then, 24 hours before aromatase activity measurement, JEG-3 cells are distributed for seeding in 96-well microplates (60,000 to 100,000 viable cells in 100 μl of culture medium per well); 24 hours later, microplates are rinsed and fresh medium containing the radioactive aromatase substrate (1β-^3H-androstenedione, 10 nM) is added together with test compounds dissolved with 1% dimethylsulfoxyde in a test concentration range between 10^−11 and 10^−4 M in a total volume of 150 μl.
Two hours after the beginning of the incubation, 100 μl of the supernatants are transferred to homologous new 96-well microplates. A solution of dextran-coated charcoal (1%) is added in each well (100 μl/well); after standing for 10 minutes on ice, microplates are centrifuged (1500 g) for 10 more minutes at 4° C. All steroids, including the radioactive substrate and the newly biosynthesized estrogens, are trapped complexed by the charcoal; only the ^3H-water specifically formed during aromatisation of 1β-^3H-androstenedione, involving a specific oxidative step removing the 1β-^3H, remains in the supernatant at this stage.
Finally, aromatase activity is expressed in fmoles/μg DNA in 2 hours and aromatase inhibition in percentage of control incubation without inhibitors.
For the molecule `N#Cc1ccc(CN(c2ccc(C#N)cc2)n2ccnc2)cc1` [Example 11, 4-[N-(1H-imidazol-1-yl)-N-(4-cyanophenylmethyl)amino]benzonitrile], inhibition was half-maximal at 0.18 ± 0.02 nM (IC50).
`N#Cc1ccc(N(Cc2ccc(Br)cc2)n2cncn2)cc1` [YM 511, reference compound]: the IC50 was determined as 0.3 ± 0.04 nM.
The molecule `N#Cc1ccc(N(Cc2ccc(C(F)(F)F)cc2)n2ccnc2)cc1` [Example 6, 4-[N-(1H-imidazol-1-yl)-N-(4-trifluoromethylphenylmethyl)amino]benzonitrile] gave an IC50 of 0.31 ± 0.01 nM.
Same read-out and setting: for `N#Cc1ccc(N(Cc2ccc(F)cc2)n2ccnc2)cc1` [Example 14, 4-[N-(1H-imidazol-1-yl)-N-(4-fluorophenylmethyl)amino]benzonitrile] the value was 0.16 ± 0.02 nM.
The molecule `N#Cc1ccc(N(Cc2ccc(F)c(F)c2)n2ccnc2)cc1` [Example 17, 4-[N-(1H-imidazol-1-yl)-N-(3,4-difluorophenylmethyl)amino]benzonitrile] came in with an IC50 of 0.24 ± 0.02 nM.
Molecule `N#Cc1ccc(N(Cc2ccc(Cl)cc2)n2ccnc2)cc1` [Example 7, 4-[N-(1H-imidazol-1-yl)-N-(4-chlorophenylmethyl)amino]benzonitrile] showed an IC50 of 0.14 ± 0.05 nM.

For the next series, the target named is T2, aromatase (Rattus norvegicus, UniProt P22443).
T2 construct: from tissue; host or cells: whole animal: adult female Wistar rats (endogenous enzyme)
T2 sequence (P22443 1-508): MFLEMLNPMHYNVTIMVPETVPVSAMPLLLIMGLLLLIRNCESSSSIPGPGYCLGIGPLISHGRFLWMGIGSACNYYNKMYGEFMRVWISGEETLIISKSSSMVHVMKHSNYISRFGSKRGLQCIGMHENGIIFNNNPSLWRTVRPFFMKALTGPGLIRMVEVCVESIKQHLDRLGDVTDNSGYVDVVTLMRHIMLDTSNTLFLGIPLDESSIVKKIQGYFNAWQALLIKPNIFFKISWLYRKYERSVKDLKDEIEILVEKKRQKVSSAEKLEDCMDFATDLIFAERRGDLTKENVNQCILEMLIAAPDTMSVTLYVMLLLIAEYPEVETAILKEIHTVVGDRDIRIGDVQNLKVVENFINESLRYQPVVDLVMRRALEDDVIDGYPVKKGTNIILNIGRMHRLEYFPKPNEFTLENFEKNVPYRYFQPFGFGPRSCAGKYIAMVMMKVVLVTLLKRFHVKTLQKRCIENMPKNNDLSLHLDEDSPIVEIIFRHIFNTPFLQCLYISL
In words: Inhibition of aromatase in vivo: inhibition of preovulatory surge of plasma estradiol in female Wistar rats. To be noted: single oral dose 10 μg/kg on diestrus, plasma estradiol 24 h later, vs vehicle controls; range = independent studies. The text has this:
Aromatase is the steroidogenic enzyme responsible for the biosynthesis of estradiol, the main female sex hormone among estrogens. In the rat, estradiol is physiologically synthesized to high circulating levels in a particular period during the 4-day estrous cycle: it is the so-called preovulatory surge taking place in the afternoon of proestrus, just before ovulation which occurs during the night between proestrous and estrous phases. A sensitive physiological model for in vivo evaluation of aromatase inhibition was developped based on the inhibition of this preovulatory surge of estradiol levels.
Adult female Wistar rats are monitored for regular 4-day estrous cyclicity by daily vaginal smear examination; after 2 or 3 regular cycles, animals are treated by a single oral administration of the very low discriminative dose of 10 micrograms/kg in a 4 ml/kg volume around 04:00 PM on diestrus, i.e. on the day before proestrus. Precisely 24 hours later, aortic blood samples are drawn under gaseous anesthesia. Plasma estradiol levels are measured by radioimmunoassay with commercially available kits (Diagnostic Systems Laboratories, Webster, Tex., U. S. A.). Control and test groups usually consist of 7 to 10 rats, depending on the number of regularly cycling rats to distribute among study groups. Results are expressed in pg/ml and then in % of inhibition taking the estradiol levels of control animals receiving only the oral vehicle as the 100% reference to allow comparisons between different independent studies, since the preovulatory surge level may vary in each control group from one study to another between about 25 to 40 pg/ml.
Regarding `CC(C)(C#N)c1cc(Cn2cncn2)cc(C(C)(C)C#N)c1` [Anastrozole, anastrozole, reference compound], the “% inhibition at 10 μg/kg” value is given as 18%-33%.
The same measure, in the same setting: for `N#Cc1ccc(CN(c2ccc(C#N)cc2)n2ccnc2)cc1` [Example 11, 4-[N-(1H-imidazol-1-yl)-N-(4-cyanophenylmethyl)amino]benzonitrile] the value was 57%-59%.
On to `N#Cc1ccc(N(Cc2ccc(Br)cc2)n2cncn2)cc1` [YM 511, reference compound], for which the “% inhibition at 10 μg/kg” value turned out to be 35%.
As for `N#Cc1ccc(N(Cc2ccc(C(F)(F)F)cc2)n2ccnc2)cc1` [Example 6, 4-[N-(1H-imidazol-1-yl)-N-(4-trifluoromethylphenylmethyl)amino]benzonitrile], the “% inhibition at 10 μg/kg” value is listed as 57%.
Same read-out and setting: the figure for `N#Cc1ccc(N(Cc2ccc(F)cc2)n2ccnc2)cc1` [Example 14, 4-[N-(1H-imidazol-1-yl)-N-(4-fluorophenylmethyl)amino]benzonitrile] is 49%-57%.
As for `N#Cc1ccc(N(Cc2ccc(F)c(F)c2)n2ccnc2)cc1` [Example 17, 4-[N-(1H-imidazol-1-yl)-N-(3,4-difluorophenylmethyl)amino]benzonitrile], the “% inhibition at 10 μg/kg” value came out at 60%.
In the case of `N#Cc1ccc(N(Cc2ccc(Cl)cc2)n2ccnc2)cc1` [Example 7, 4-[N-(1H-imidazol-1-yl)-N-(4-chlorophenylmethyl)amino]benzonitrile], the “% inhibition at 10 μg/kg” value turned out to be 47%.

System in another series: not given
Test: not given
Conditions: not given
As to `N#Cc1ccc(N(Cc2ccc(C(F)(F)F)cc2)n2ccnc2)cc1` [Example 6, 4-[N-(1H-imidazol-1-yl)-N-(4-trifluoromethylphenylmethyl)amino]benzonitrile], the melting point is 134 °C.
As to `N#Cc1ccc(N(Cc2ccc(F)c(F)c2)n2ccnc2)cc1` [Example 17, 4-[N-(1H-imidazol-1-yl)-N-(3,4-difluorophenylmethyl)amino]benzonitrile], the melting point stood at 132 °C.
